Tests used:
[1] = Dahl salt-sensitive rat model; assay type: in vivo; conditions: male, Dahl salt-sensitive (DSS), rat, plasma, oral; DSS rats, 10 mg/kg/day in chow, week 6, n=6; read-out: average total plasma concentration of olinciguat
Method: (§1) The Dataquest A.R.T.™ acquisition and analysis system (Data Sciences International [DSI], St. Paul, MN) was employed to monitor and analyze hemodynamic data from conscious, freely moving rats surgically implanted with a telemetry pressure transmitter (PA-C40). Telemetry transmitter implantation was performed on rats under sterile conditions. Rats were anesthetized with isoflurane and body temperature was maintained with a heating pad during surgery. A laparotomy was performed to expose the abdominal aorta. The catheter tip of the telemetry transmitter was inserted into the abdominal aorta and secured with a 5-0 silk suture (Ethicon, Inc., Somerville, NJ). The abdominal incision was closed with uninterrupted suture (4-0 silk, Ethicon, Inc., Somerville, NJ) and the telemetry transmitter was placed in the abdominal cavity and secured to the abdominal wall. Approximately 100 µl of 0.25% marcaine was applied directly to the closed abdominal wall, and the skin was then closed with suture (4-0 Vicryl® absorbable, Ethicon, Inc., Somerville, NJ). Buprenorphine (0.05 mg/kg/day, subcutaneous [s.c.]) was administered immediately after the surgery for postoperative pain relief. After recovery from anesthesia, rats were returned to their home cages, placed on DSI receivers, and allowed a 5- to 14-day recovery period. Arterial hemodynamics were measured continuously and recorded throughout the study. For acute studies, analysis was based on hourly averages, for chronic studies, analysis was based on daily or weekly averages.
(§2) Male DSS rats (n = 48, 230–300 g) were implanted with telemetry transmitters as described above. During the 2-week pretreatment period and the 6-week treatment period, rats were either fed a NS diet (0.3% NaCl, n=8) or a HS diet (8% NaCl). During the treatment period, one group of HS rats was continued on HS diet (HS, n=8) and a second group of HS rats was switched to a HS diet containing olinciguat targeting the dose equivalent of 10 mg/kg/day (OLI10, n=8). At the end of the 6-week treatment period, body weight was measured, urine was collected over a 24-h period using a metabolic cage for urinalysis, and blood samples were collected for plasma biomarker analyses. At the end of the study, rats were anesthetized, and whole bodies were perfused via the left ventricle with heparinized PBS (1 U/ml heparin) containing IBMX (1mM). Organs were collected and weighed. All organ weights were normalized to body weight. After weighing the heart, the right ventricular free wall was removed, and the left ventricular free wall plus left ventricular septum (LV+S) were weighed.
(§3) In the DSS model, daily MAP (24-h average) data were analyzed using two-way ANOVA, with time and treatment group as independent variables. For each day, groups were compared to the HS group with a Dunnett's post-hoc test. Body weight, LV+S, cardiac weight, lung weight, kidney weight, plasma NT-proBNP, and 24-h urine protein excretion (UPE) data were analyzed by one-way ANOVA, followed by Dunnett's multiple comparison to the HS group.

[2] = system: Dahl salt-sensitive (DSS) rats on high salt diet; assay: Dahl salt-sensitive rat model; assay type: in vivo; conditions: for MAP at the end of the treatment period: 6 weeks; for LV+S weight normalized to body weight: end of 6-week treatment
Method: as §1, §2, §3

[3] = set-up: method as in Mittleman et al., 2017; conditions: healthy human subjects, ref Mittleman et al., 2017, cited from earlier work
[4] = Mouse TNFα-induced model of vascular inflammation; assay type: in vivo; conditions: male, C57BL/6, mouse, plasma, po; mice, 10 mg/kg p.o., at euthanasia; read-out: plasma concentration of olinciguat
Method: (§4) Male C57BL/6 mice (n=30, 22 g, 8 weeks) were studied. The TNFα/olinciguat group of mice (n=10) was administered 10 mg/kg olinciguat p.o., formulated in 0.1 ml 100% PEG, followed byintraperitoneal (i.p.) injection of 50 ng of mouse TNFα formulated in 0.5 ml pyrogen-free 0.9% NaCl solution one hour later. The TNFα/vehicle control group of mice (n=10) was treated with p.o. vehicle, followed by i.p. injection of 50 ng of mouse TNFα after one h. A naïve, non-treated control group of mice (n=10) was included in the study. […] Plasma levels of olinciguat were determined by LCMS. Plasma samples were diluted 1:300 for determination of sL-selectin, sP-selectin, sE-selectin, and sICAM-1 by ELISA.
(§5) In the vascular inflammation model, data were analyzed by one-way ANOVA, followed by Dunnett's multiple comparison to the TNFα-vehicle control.

[5] = system: C57BL/6 mice treated with TNFα; assay: Mouse TNFα-induced model of vascular inflammation; assay type: in vivo; conditions: 10 mg/kg, total plasma concentration x 1.7% free
Method: as §4, §5

- concentration at 6 weeks [1]: 25.4 ± 3.8 nM
- Olinciguat concentration (free) ([2]; 10 mg/kg/day, total plasma concentration x 1.0% free): 0.22–0.29 nM^e
- concentration at 5 h [4]: 544 ± 61 nM
- Olinciguat concentration (free) [5]: 8.2–10.2 nM^f
Structure (SMILES): NC(=O)[C@](O)(CNc1nc(-c2cc(-c3ccon3)n(Cc3ccccc3F)n2)ncc1F)C(F)(F)F [olinciguat, (R)-3,3,3-trifluoro-2-(((5-fluoro-2-(1-(2-fluorobenzyl)-5-(isoxazol-3-yl)-1H-pyrazol-3-yl)pyrimidin-4-yl)amino)methyl)-2-hydroxypropanamide]
- MAP at the end of the treatment period ([2]; HS diet, olinciguat 10 mg/kg/day in chow): 192 mmHg
- MAP at the end of the treatment period ([2]; HS diet, olinciguat 10 mg/kg/day in chow, listed as OLI10): 192 ± 7 mmHg
- MAP on day 16 (after treatment initiation) ([2]; HS diet, olinciguat 10 mg/kg/day in chow, 161 ± 7 mmHg on day 14 before treatment): 146 ± 7 mmHg
- lung weight, fold higher than in NS ([2]; HS diet, olinciguat 10 mg/kg/day vs NS control): 1.2 fold
- lung weight normalized to body weight ([2]; HS diet, olinciguat 10 mg/kg/day, HS 8.9 ± 1.7): ↓ lung weight
- lung weight normalized to body weight ([2]; HS diet, olinciguat 10 mg/kg/day, HS 8.9 ± 1.7, listed as OLI10): 4.0 ± 0.1 g/kg BW
- normalized kidney weight ([2]; HS diet, olinciguat 10 mg/kg/day, HS 10.9 ± 0.5, not significantly different): 10.2 ± 0.23 g/kg BW
- 24-h urine protein excretion (UPE) ([2]; HS diet, olinciguat 10 mg/kg/day, HS 643 ± 60, not statistically significant): 599 ± 70 mg
- average body weight at the end of the treatment period ([2]; HS diet, olinciguat 10 mg/kg/day, HS control 364 ± 19): 412 ± 11 g
- cardiac weight vs HS ([2]; HS diet, olinciguat 10 mg/kg/day, data not shown): lower in OLI10 than HS
- LV+S weight normalized to body weight ([2]; HS diet, olinciguat 10 mg/kg/day, HS 4.1 ± 0.2): ↓ cardiac hypertrophy
- LV+S weight normalized to body weight ([2]; HS diet, olinciguat 10 mg/kg/day, HS 4.1 ± 0.2, listed as OLI10): 3.3 ± 0.1 g/kg BW
- difference in MAP between olinciguat-treated and HS disease control at end of treatment period ([2]; HS diet, olinciguat 10 mg/kg/day, lower than HS, listed as OLI10): 15 mmHg
- plasma NT-proBNP ([2]; HS diet, olinciguat 10 mg/kg/day, n=6, HS 2,833 ± 416): ↓ NT-proBNP
- plasma NT-proBNP ([2]; HS diet, olinciguat 10 mg/kg/day, n=6, HS 2,833 ± 416, listed as OLI10): 1,235 ± 301 pg/ml
- NT-proBNP, percent lower than untreated controls ([2]; olinciguat 10 mg/kg/day): 56%
- terminal-phase half-life ([3]; repeat dosing with oral tablets): ~ 30 h
- renal clearance, percent of apparent total body clearance [CL/F] [3]: ≤ 0.3%

From paper PMC7156612, “Olinciguat, an Oral sGC Stimulator, Exhibits Diverse Pharmacology Across Preclinical Models of Cardiovascular, Metabolic, Renal, and Inflammatory Disease” (Frontiers in Pharmacology, 2020)
